For four molecules, IC50 and viability, T/C results are on record in PubChem BioAssay AID2060899 (Molecular Pharmacology Branch, DTP, NCI, 2025).

Bounds are passed on as bounds.

This assay has as its system 565726-208-R1-J5-PDC complex spheroids, growth inhibition. The assay is described as follows: Anticancer human tumor 565726-208-R1-J5-PDC patient-derived pancreatic adenocarcinoma cell line growth inhibition [RAS]. The settings on record: for viability, T/C: stronger effect = lower value. The method, boiled down: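 Multi-cell-type spheroids: tumor cells plus HUVEC endothelial cells and mesenchymal stem cells. RAS-pathway inhibitors were combined with targeted agents, each dosed in half-log steps down from clinical Cmax, or from 10 microM when Cmax was unknown.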
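Note: spheroids exposed to compounds for seven days before readout.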
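Throughout, for viability, T/C: 100% = DMSO vehicle control viability.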

On to `Cc1nc(N2CCC3(CC2)COC(C)C3N)c(CO)nc1Sc1ccnc(N)c1Cl` (stereo not given) + C=CC(=O)N1CCN(c2nc(OCC3CCCN3C)nc3c(F)c(-c4nc(N)cc(C)c4C(F)(F)F)c(Cl)cc23)C(C)C1, for which the IC50 (as a rule, the concentration needed to halve the response being measured) runs as follows: (curve of first compound, second compound 0.00316 µM) above 10000 nM; (curve of first compound, second compound 0.01 µM) above 10000 nM; (curve of first compound, second compound 0.0316 µM) above 10000 nM; (curve of first compound, second compound 0.1 µM) above 10000 nM; (curve of first compound, second compound 0.316 µM) above 10000 nM; (curve of first compound, second compound 1 µM) above 10000 nM. Besides, the viability, T/C (commonly the result in the treated group divided by that in the control group, in per cent) by setting is: (second compound 0.00316 µM, first compound 0.0316 µM) 115%; (second compound 0.00316 µM, first compound 0.1 µM) 142%; (second compound 0.00316 µM, first compound 0.316 µM) 71%; (second compound 0.00316 µM, first compound 1 µM) 86.8%; (second compound 0.00316 µM, first compound 3.16 µM) 117%; (second compound 0.00316 µM, first compound 10 µM) 143%. Further, the viability, T/C runs as follows: (second compound 0.01 µM, first compound 0.0316 µM) 154%; (second compound 0.01 µM, first compound 0.1 µM) 134%; (second compound 0.01 µM, first compound 0.316 µM) 77.8%; (second compound 0.01 µM, first compound 1 µM) 87.9%; (second compound 0.01 µM, first compound 3.16 µM) 121%; (second compound 0.01 µM, first compound 10 µM) 148%. Moreover, the viability, T/C (second compound 0.0316 µM, first compound 0.0316 µM) was 149%; the viability, T/C (second compound 0.0316 µM, first compound 0.1 µM) is 173%; the viability, T/C (second compound 0.0316 µM, first compound 0.316 µM) was 77.3%; the viability, T/C (second compound 0.0316 µM, first compound 1 µM) was 90.5%; the viability, T/C (second compound 0.0316 µM, first compound 3.16 µM) is 126%; the viability, T/C (second compound 0.0316 µM, first compound 10 µM) is 139%. Besides, the viability, T/C runs as follows: (second compound 0.1 µM, first compound 0.0316 µM) 162%; (second compound 0.1 µM, first compound 0.1 µM) 147%; (second compound 0.1 µM, first compound 0.316 µM) 80.6%; (second compound 0.1 µM, first compound 1 µM) 74.2%; (second compound 0.1 µM, first compound 3.16 µM) 138%; (second compound 0.1 µM, first compound 10 µM) 126%. In addition, the viability, T/C by setting is: (second compound 0.316 µM, first compound 0.0316 µM) 180%; (second compound 0.316 µM, first compound 0.1 µM) 136%; (second compound 0.316 µM, first compound 0.316 µM) 78.5%; (second compound 0.316 µM, first compound 1 µM) 76.7%; (second compound 0.316 µM, first compound 3.16 µM) 106%; (second compound 0.316 µM, first compound 10 µM) 140%. Also, the viability, T/C is, setting by setting: (second compound 1 µM, first compound 0.0316 µM) 167%; (second compound 1 µM, first compound 0.1 µM) 135%; (second compound 1 µM, first compound 0.316 µM) 78.3%; (second compound 1 µM, first compound 1 µM) 83.4%; (second compound 1 µM, first compound 3.16 µM) 111%; (second compound 1 µM, first compound 10 µM) 133%.
For the molecule `CC(Nc1ccc2c(c1)OCCn1cc(N3C(=O)OCC3C(F)F)nc1-2)C(N)=O` (stereo not given) + CCn1c(-c2cc(N3CCN(C)CC3)cnc2C(C)OC)c2c3cc(ccc31)-c1csc(n1)CC(NC(=O)C1CC1C)C(=O)N1CCCC(N1)C(=O)OCC(C)(C)C2, the IC50 is, setting by setting: (curve of first compound, second compound 0.000949 µM) 316 nM; (curve of first compound, second compound 0.003 µM) below 31.6 nM; (curve of first compound, second compound 0.00949 µM) below 31.6 nM; (curve of first compound, second compound 0.03 µM) below 31.6 nM; (curve of first compound, second compound 0.0949 µM) below 31.6 nM; (curve of first compound, second compound 0.3 µM) below 31.6 nM. In addition, the viability, T/C runs as follows: (second compound 0.000949 µM, first compound 0.0316 µM) 62.7%; (second compound 0.000949 µM, first compound 0.1 µM) 49%; (second compound 0.000949 µM, first compound 0.316 µM) 50.6%; (second compound 0.000949 µM, first compound 1 µM) 47.7%; (second compound 0.000949 µM, first compound 3.16 µM) 40.2%; (second compound 0.000949 µM, first compound 10 µM) 32.9%. Besides, the viability, T/C is, setting by setting: (second compound 0.003 µM, first compound 0.0316 µM) 49.7%; (second compound 0.003 µM, first compound 0.1 µM) 48.4%; (second compound 0.003 µM, first compound 0.316 µM) 39.7%; (second compound 0.003 µM, first compound 1 µM) 37.2%; (second compound 0.003 µM, first compound 3.16 µM) 36.3%; (second compound 0.003 µM, first compound 10 µM) 24.2%. For the same molecule, the viability, T/C (second compound 0.00949 µM, first compound 0.0316 µM) is 44.5%; the viability, T/C (second compound 0.00949 µM, first compound 0.1 µM) is 37.4%; the viability, T/C (second compound 0.00949 µM, first compound 0.316 µM) is 32.9%; the viability, T/C (second compound 0.00949 µM, first compound 1 µM) is 29.6%; the viability, T/C (second compound 0.00949 µM, first compound 3.16 µM) is 26.4%; the viability, T/C (second compound 0.00949 µM, first compound 10 µM) is 19.5%. The viability, T/C (second compound 0.03 µM, first compound 0.0316 µM) was 31.9%; the viability, T/C (second compound 0.03 µM, first compound 0.1 µM) is 26.9%; the viability, T/C (second compound 0.03 µM, first compound 0.316 µM) is 26.8%; the viability, T/C (second compound 0.03 µM, first compound 1 µM) is 24.9%; the viability, T/C (second compound 0.03 µM, first compound 3.16 µM) was 22.4%; the viability, T/C (second compound 0.03 µM, first compound 10 µM) is 13.3%. The viability, T/C runs as follows: (second compound 0.0949 µM, first compound 0.0316 µM) 24.8%; (second compound 0.0949 µM, first compound 0.1 µM) 24.6%; (second compound 0.0949 µM, first compound 0.316 µM) 23.1%; (second compound 0.0949 µM, first compound 1 µM) 18.5%; (second compound 0.0949 µM, first compound 3.16 µM) 18.4%; (second compound 0.0949 µM, first compound 10 µM) 12.1%. For the same molecule, the viability, T/C reads like this: (second compound 0.3 µM, first compound 0.0316 µM) 22.6%; (second compound 0.3 µM, first compound 0.1 µM) 20.9%; (second compound 0.3 µM, first compound 0.316 µM) 20.1%; (second compound 0.3 µM, first compound 1 µM) 19.3%; (second compound 0.3 µM, first compound 3.16 µM) 15.6%; (second compound 0.3 µM, first compound 10 µM) 10.7%.
As for `O=C(c1ccc(F)c(F)c1Nc1ccc(I)cc1F)N1CC(O)([C@@H]2CCCCN2)C1`, the viability, T/C by setting is: (compound 0.0316 µM) 69.5% [middle of 4 runs]; (compound 0.1 µM) 62.4% [middle of 4 runs]; (compound 1 µM) 33.5% [middle of 4 runs].
Take `C=CC(=O)Nc1cc(Nc2nccc(-c3cn(C)c4ccccc34)n2)c(OC)cc1N(C)CCN(C)C`: the viability, T/C by setting is: (compound 0.0316 µM) 92.9% [middle of 4 runs]; (compound 0.1 µM) 85.7% [middle of 4 runs]. For the same molecule, the concentration for half-maximal inhibition (IC50) (curve of compound) was above 1000 nM.
